Results published in patent US6949571B2, “1,2-dihydropyridine compounds, process for preparation of the same and use thereof” (Eisai Co., Ltd., priority 2000, dated 2005).

Test system: AMPA receptor
Details: Table 1; primary culture of rat embryo cerebral cortex nerve cells, 2 μM AMPA, 1 μM MK-801
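Note: primary rat embryonic cortical neurons grown on an astrocyte layer in 96-well plates, used after at least 8 to 10 days in culture, Fura2-AM fluorescence ratio at 340/380 nm excitation.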

Q: With `CS(=O)(=O)Nc1ccccc1-c1cc(-c2ccccc2C#N)c(=O)n(-c2ccccc2)c1` [Example 3, 3-(2-Cyanophenyl)-5-(2-methylsulfonylaminophenyl)-1-phenyl-1,2-dihydropyridin-2-one] as the compound, how does the IC50 read?
A: The IC50 was 300 nM.

Q: For `N#Cc1ccccc1-c1cc(-c2ccccn2)c(=O)n(-c2ccccc2)c1` [Example 33, 3-(2-Pyridyl)-5-(2-cyanophenyl)-1-phenyl-1,2-dihydropyridin-2-one], which IC50 is on record?
A: Its IC50 is 700 nM.

Q: Which IC50 does the source give for `N#Cc1ccccc1-c1cc(-c2ccccn2)cn(-c2ccc(C(F)(F)F)cc2)c1=O` [Example 108, 3-(2-Cyanophenyl)-5-(2-pyridyl)-1-(4-trifluoromethylphenyl)-1,2-dihydropyridin-2-one] here?
A: Its IC50 is 30 nM.

Q: `N#Cc1ccccc1-c1cc(-c2ccccn2)cn(-c2ccoc2)c1=O` [Example 106] was tested. Which IC50 did it give?
A: The IC50 was 70 nM.

Q: Which IC50 does the source give for `CSc1ccc(-n2cc(-c3ccccn3)cc(-c3ccccc3C#N)c2=O)cc1` [Example 26, 3-(2-Cyanophenyl)-5-(2-pyridyl)-1-(4-methylthiophenyl)-1,2-dihydropyridin-2-one] here?
A: Its IC50 is 20 nM.

Q: For `N#Cc1ccccc1-c1cc(-c2ccccn2)cn(-c2ccncc2)c1=O` [Example 117, 3-(2-Cyanophenyl)-5-(2-pyridyl)-1-(4-pyridyl)-1,2-dihydropyridin-2-one], which IC50 is on record?
A: The IC50 was 400 nM.

Q: How did the IC50 turn out when `Cc1ccccc1-c1cc(-c2ccccn2)cn(-c2ccccc2)c1=O` [Example 60, 3-(2-Tolyl)-5-(2-pyridyl)-1-phenyl-1,2-dihydropyridin-2-one] was run?
A: Its IC50 is 1700 nM.

Same assay, conditions: Table 2; suppression of AMPA-induced calcium influx into nerve cells

Q: Which IC50 does the source give for `O=Cc1sccc1-c1cc(-c2ccccn2)cn(-c2ccccc2)c1=O` [Example 286, 3-(2-Formylthiophen-3-yl)-5-(2-pyridyl)-1-phenyl-1,2-dihydropyridin-2-one] here?
A: Its IC50 is 300 nM.

Q: Which IC50 does the source give for `N#Cc1ccccc1-c1cc(-c2cccc(Br)n2)cn(-c2ccccc2)c1=O` [Example 300, 5-(2-Bromopyridin-6-yl)-3-(2-cyanophenyl)-1-phenyl-1,2-dihydropyridin-2-one] here?
A: Its IC50 is 300 nM.

Q: For `N#Cc1ccccc1-c1cc(-c2ccc3ccccc3c2)cn(-c2cccnc2)c1=O` [Example 211, 3-(2-Cyanophenyl)-5-(2-naphthyl)-1-(3-pyridyl)-1,2-dihydropyridin-2-one], which IC50 is on record?
A: The IC50 was 3600 nM.

Q: Which IC50 does the source give for `N#CCc1ccccc1-n1cc(-c2ccccn2)cc(-c2ccccc2C#N)c1=O` [Example 151, 3-(2-Cyanophenyl)-5-(2-pyridyl)-1-(2-cyanomethylphenyl)-1,2-dihydropyridin-2-one] here?
A: Its IC50 is 300 nM.

Q: Which IC50 does the source give for `O=c1c(-c2ccnnc2)cc(-c2ccccn2)cn1-c1ccccc1` [Example 259, 1-Phenyl-3-(4-pyridazyl)-5-(2-pyridyl)-1,2-dihydropyridin-2-one] here?
A: The IC50 was 2000 nM.

Q: With `CCN(CC)Cc1cccc(-c2cc(-c3ccccc3C#N)c(=O)n(-c3ccccc3)c2)n1` [Example 157, 3-(2-Cyanophenyl)-5-(6-diethylaminomethyl-2-pyridyl)-1-phenyl-1,2-dihydropyridin-2-one] as the compound, how does the IC50 read?
A: The IC50 was 500 nM.

Q: For `N#Cc1ccccc1-c1cc(-c2ccccn2)cn(-c2ccc([N+](=O)[O-])cc2)c1=O` [Example 252, 3-(2-Cyanophenyl)-1-(4-nitrophenyl)-5-(2-pyridyl)-1,2-dihydropyridin-2-one], which IC50 is on record?
A: The IC50 was 300 nM.

Q: With `O=c1c(-c2ccc3ccccc3c2)cc(-c2ccccn2)cn1-c1ccccc1` [Example 284, 3-(2-Naphthyl)-5-(2-pyridyl)-1-phenyl-1,2-dihydropyridin-2-one] as the compound, how does the IC50 read?
A: Its IC50 is 2800 nM.

Same assay, conditions: Table 3; primary culture of rat embryo cerebral cortex nerve cells, 2 μM AMPA, 1 μM MK-801

Q: For `O=C(c1cc(-c2ccccc2)c(=O)n(-c2ccccc2)c1)c1ccccn1` [Example 395, 5-(2-Pyridinecarbonyl)-1-phenyl-3-phenyl-1,2-dihydropyridin-2-one], which IC50 is on record?
A: Its IC50 is 900 nM.

Q: For `O=C(NC1CCCCC1)c1cc(-c2ccccn2)cn(-c2ccccc2)c1=O` [Example 344, 3-Cyclohexylaminocarbonyl-5-(2-pyridyl)-1-phenyl-1,2-dihydropyridin-2-one], which IC50 is on record?
A: The IC50 was 4700 nM.

Q: How did the IC50 turn out when `O=c1c(-c2nc3ccccc3s2)cc(-c2ccccn2)cn1-c1ccccc1` [Example 371, 3-(2-Benzothiazolyl)-5-(2-pyridyl)-1-phenyl-1,2-dihydropyridin-2-one] was run?
A: Its IC50 is 600 nM.
